Data published in US20090325959A1 (priority 2008, published 2009).
pIC50, pKi: −log10 of the molar value. Where two headings read alike, the source gives them in different places.

What was measured:
ROCK1 = target: T1, ROCK1 (Homo sapiens, UniProt Q13464); experiment: Rho kinase inhibition assay (IMAP fluorescence polarization), ROCK1; type: biochemical;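 also: kinase reaction run 60 min at room temperature, then phosphorylated substrate captured on IMAP beads for 30 min, with fluorescence polarization read in mP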
T1 construct: purchased Upstate/Chemicon 14-601
Procedure: (§1) Following the pre-incubation, 10 μM ATP was added to initiate the reaction. After 60 minutes at room temperature, Molecular Devices IMAP™ binding solution was added to bind phosphorylated substrate. After 30 minutes of incubation in the presence of the IMAP™ beads, the fluorescence polarization was read and the ratio was reported as mP. IC50 values for compounds and EC50 values for ATP were calculated using the Prism software from Graphpad.

[1] = Rat oral pharmacokinetics (plasma); type: in vivo; settings: 20-30 μmol/kg; for half-life: mean n = 3, read-out: t½ (converted)
Procedure: Plasma (EDTA K2 anticoagulant) was collected from male, cannulated, CD Sprague Dawley rats to determine the pharmacokinetics of formulations containing compound inhibitors of Rho kinase. Each animal was dosed orally with a 4 ml/kg solution or suspension of each test compound in 10 mM acetate buffered saline, pH 4.5 at a final concentration range of 20-30 μmol/kg. Blood was collected at 0.25, 0.5, 1, 2, 4, 6, 8, and 24 hours. Plasma samples were assayed for the concentration of the test compound using an on-line, solid phase extraction LC/MS/MS analysis system.
Samples were analyzed on a QSTAR Elite, hybrid quadrupole time-of-flight mass spectrometer (Applied Biosystems, Framingham, Mass.) coupled with a Symbiosis Pharma integrated, on-line SPE-HPLC system (Spark Holland Inc., Plainsboro, N.J.). Analyst QS 2.0 software was used for instrument control, data acquisition and processing. […] Mobile Phase A consisted of 0.1% ammonium hydroxide in water and Mobile Phase B consisted of 0.1% formic acid in acetonitrile. Pharmacokinetic analyses were performed using WinNonlin software version 5.2 (Pharsight Corporation, Mountain View, Calif.).
As determined from the plasma concentration versus time curves, the time to peak and peak exposure are represented by the values Tmax and Cmax, respectively. The AUC values (nM*hr) shown were calculated as the areas under the plasma concentration versus time curves from time zero through the time of the last observable value and represent the total exposure of the compound over the course of the study. Half-life values or the amount of time required for the plasma levels of the compound to decline to half the initial value are represented as t½.

[2] = Compound concentrations in lungs of ova-sensitized, ova-challenged mice post IP, PO and IT administration; type: in vivo; settings: male, Balb/c, mouse, lung, n = 9 or 10, read-out: Lung concentration (plasma corrected); for concentration at 24 h: AI model, time point 24 h; for concentration at 3 h: BD model, time point 3 h
Procedure: Additionally, compound concentrations were determined in the plasma and lungs of male, ovalbumin-sensitized, Balb/c mice from a murine model of asthma. Test compounds were formulated in water or 1% polysorbate 80 and dosed at 15 μmol/kg for intraperitoneal (IP) or oral (PO) administration or formulated for intratracheal (IT) administration and dosed at 5 μmol/kg, which directly targets the lungs. Following completion of the in vivo study, mice were euthanized and blood and plasma collected approximately 2.5-3 hours post administration of test compound for bronchodialator (BD) studies and 24 hours post administration for anti-inflamatory (AI) studies. Lungs were homogenized in Matrix A lysing tubes using a FastPrep 24 tissue and cell homogenizer (MP Biomedicals, Solon, Ohio). Both plasma samples and lung extracts were assayed for compound concentrations using an on-line, solid phase extraction LC/MS/MS system. The actual lung tissue concentrations of each compound in mouse were extrapolated from the lung and plasma concentrations, data are shown in Table 11. The results of a set of experiments using unsensitized mice and collecting only plasma 15 minutes post administration of test compounds are shown in Table 12.

[3] = tested on: A-10 rat thoracic aorta cells; experiment: PDGF-stimulated smooth muscle cell proliferation assay (BrdU incorporation); type: cell-based; settings: for Percent of PDGF Induced Proliferation at 1 μM Avg / Percent of PDGF Induced Proliferation at 10 μM Avg: A-10 cells, 10 ng/mL PDGF, BrdU incorporation, percent of total challenge-stimulated proliferation; for Percent of PDGF Induced Proliferation at 1 μM Avg: 1 μM test compound; for Percent of PDGF Induced Proliferation at 10 μM Avg: 10 μM test compound;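 as to all read-outs here: cells kept in serum-free medium, BrdU allowed to incorporate for 24 h, then incorporated label detected fluorometrically with an anti-BrdU antibody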
Procedure: Effects on cell proliferation were measured using a bromodeoxyuridine (BrdU) incorporation assay. […] Serum free media containing 01% BSA was added to the cells. 24 hours later the media was removed and replaced with warmed serum free media. […] Proliferation was then monitored using the BrdU Cell Proliferation Assay, HTS (Calbiochem cat. #t HTS01). BrdU was allowed to incorporate into cells for 24 hours prior to the addition of fixative/denaturing solution and the fluorometric detection of incorporated BrdU using a BrdU antibody as per manufacturer's directions. Data are reported as a percent of the PDGF-stimulated BrdU incorporation.

p70S6K human enzyme = target: T2, p70S6K human enzyme (Homo sapiens, UniProt P23443, T412E); experiment: p70S6K inhibition assay (IMAP FP); type: biochemical;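 also: kinase reaction run at room temperature, phosphorylated substrate captured on IMAP beads and read as fluorescence polarization in mP, IC50 then converted to Ki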
T2 construct: purchased Upstate Chemicon 14-486

[4] = tested on: ova-sensitized, ova-challenged mice; experiment: Mouse ovalbumin sensitization model, in vivo anti-inflammatory activity (BALF eosinophils and cytokines); settings: for Airway eosinophil infiltration (eosinophils per ml of BALF): dosed orally to day 31, anti-inflammatory dosing paradigm, FIG. 4
Procedure: Male BALB/c mice were ordered from Charles River Laboratories (Raleigh, N.C.). The animals were approximately 19 to 21 grams at time of receipt. Upon arrival, the animals were randomized into groups of five males per cage and assigned to a dosing group. Animals were quarantined for 7 days under test conditions. They were observed daily for general health status and ability to adapt to the water bottles. Animals were sensitized on day 0 and 14 of study by an intraperitoneal injection with 20 μg of ovalbumin (ova) and 2.0 mg aluminum hydroxide (alum) which initiates the development of a specific T-helper (Th) cells type 2 resulting in asthmatic animals (denoted as Ova in the figures). One group of animals received an injection of saline to use as control animals (denoted as normal in the figures). […] Aerosol challenge consists of using an Aerogen Aeroneb nebulizer and controller with a particle size of 4-6 μm mass median aerodynamic diameter (MMAD) with a distribution of 400 μl per minute. This aerosol challenge is necessary to target the Th2-driven allergic inflammation in the lower airways.
The anti-inflammatory dosing paradigm (FIG. 3) was utilized to evaluate the anti-inflammatory effects of experimental compounds. […] On day 32 of the experiment, after measurement of airway hyperreactivity, BALF was collected and all animals were anesthetized, bled and euthanized.
Bronchoalveolar lavage fluid (BALF) was collected by infusing 3.0 ml of saline with 10% fetal calf serum into the lungs via the trachea and then withdrawing the fluid. The total amount of cells/ml of BALF fluid was determined via manual cell count on hemocytometer. The BALF was centrifuged, supernatant removed and analyzed for cytokine concentrations as described below, and cell pellet reconstituted in 500 μL of fluid. Cytospin slides were prepared from the cell pellet using 100 μL of fluid and spinning samples for 5 minutes at 5000 rpms in a cytospin centrifuge. Following Hema3 stain, relative percentages of individual leukocytes were determined on a 200 cell count for each sample. The final concentration of individual leukocyte cell types per ml of BALF was determined by multiplication of the relative percentage of individual leukocytes with the total amount of cells/ml of BALF fluid.
The concentrations of cytokines in the BALF samples were determined using commercially available Bio-plex kits (Bio-Rad) for the detection of mouse IL-5, IL-13, and Eotaxin. The analysis of cytokine levels was measured using the Bio-Plex 200 (Bio-Rad) system according to the manufacturer's instructions.

[5] = Compound plasma concentrations in unsensitized mice at 15 min post administration; type: in vivo; settings: mouse
ROCK2 = target: T3, ROCK2 (Homo sapiens, UniProt O75116); experiment: Rho kinase inhibition assay (IMAP fluorescence polarization), ROCK2; type: biochemical;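 also: kinase reaction started with 10 µM ATP and run 60 min at room temperature, then phosphorylated substrate captured on IMAP beads for 30 min and fluorescence polarization read in mP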
T3 construct: purchased Upstate/Chemicon 14-451
Procedure: as §1

human neutrophils = experiment: Human neutrophil chemotaxis induced by fMLP (modified Boyden chamber); type: cell-based
From the text: This assay is an in vitro assay of neutrophil chemotaxis that can be used to evaluate the ability of Rho Kinase inhibitor compounds of Formula I or II to inhibit the migration of human neutrophils, an inflammatory cell that has been implicated in the pathophysiology of allergic conjunctivitis.
Peripheral blood from healthy human volunteers was collected and the neutrophils were isolated by Ficoll-paque density centrifugation followed by dextran sedimentation and hypotonic lysis of the red blood cells. Neutrophil chemotaxis was assessed using a modified Boyden Chamber (Neuroprobe, 96-well) with a 3 μm pore polycarbonate membrane. The ability of the tested compounds to block chemotaxis induced by a 1 μM fMLP challenge during a one hour incubation at 37° C. with 5% CO2 was assessed in a dose response manner.

Akt3 human enzyme = target: T4, Akt3 human enzyme (Homo sapiens, UniProt Q9Y243); experiment: Akt3 inhibition assay (IMAP FP); type: biochemical;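 also: kinase reaction run 60 min at room temperature after 30 µM ATP start, phosphorylated substrate captured on IMAP beads and read as fluorescence polarization (mP)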
T4 construct: purchased Upstate Chemicon 14-502
Procedure: Inhibition of Akt3 and p70S6K activity was determined using the IMAP™ FP Progressive Binding Kit (Molecular Devices product number R8127). […] Following the pre-incubation, 30 μM ATP was added to initiate the reaction. After 60 minutes at RT, Molecular Devices IMAP™ binding solution was added to bind phosphorylated substrate. After 30 minutes of incubation in the presence of the IMAP™ beads the fluorescence polarization was read and the ratio was reported as mP. IC50 results were calculated using the Prism software from Graphpad. The Ki values were determined according to the following formula: Ki=IC50/(1+([ATP Challenge]/EC50 ATP)).

[6] = tested on: ova-sensitized, ova-challenged mice; experiment: Prevention of airway hyperreactivity (Penh, methacholine) in mouse ovalbumin sensitization model; type: in vivo; settings: for log10AUC (Penh): 15 μmol/kg/oral, days 27 to 31; for airway hyperreactivity to methacholine dosed on Day 32: oral 15 μMol/kg once a day during days 27 to 31
Procedure: The anti-inflammatory dosing paradigm consists of dosing the animals once a day starting on day 27 and finishing on either day 30 or 31 (1 hr prior to the aerosolized ovalbumin challenges on days 28 to 30) but not on day 32 when hyperreactivity evaluation occurs. […] Exposure to the methacholine doses consisted of a 3 minute period during which a nebulizer was aerosolizing the methacholine and an additional 3 minute period following the cessation of nebulization. […] Enhanced pause (Penh), a unitless index of airway hyperreactivity, is derived from the expiratory side of the respiratory waveform measured via the plethysmograph and is used as an indirect measure of airway resistance and hyperreactivity. […] Following the methacholine dose response, BALF was collected and all animals were anesthetized, bled and euthanized. […] The Penh value at each of the dose levels of methacholine represents the 6-minute average response. Change from baseline (CFB) in Penh was calculated at each methacholine dose and the area under the curve (AUC) for these CFB values was calculated using the trapezoidal rule. This same approach was applied for each mouse across multiple experiments. […] Data from equal experimental conditions across experiments performed on different days were pooled for statistical analysis and data reporting. […] A random intercept for each experiment was assumed to account for possible similarities of the results obtained from a given experiment (i.e., as a “blocking effect”). […] For FIG. 9, linear AUC values from compound treated mice were reported as a percent of linear AUC values from vehicle-treated ovalbumin-sensitized/ovalbumin-challenged (asthmatic) mice.

LPS-challenged mice = experiment: LPS-induced neutrophilia and cytokine production assay; type: in vivo, mouse; settings: intratracheal administration; FIG. 11B
Procedure: Male BALB/c mice, approximately 19 to 21 grams, were ordered from Charles River Laboratories (Raleigh, N.C.). All animals were challenged with aerosolized LPS (10 μg/ml) for 25 minutes on study day 0. LPS aerosol was generated using an Aerogen Aeroneb nebulizer and controller providing a flow of 400 μl/min and a particle size of 2-4 μm MMAD. Rolipram was administered i.p at 20 mg/kg. […] Four hours following LPS challenge, BALF was collected using a total of 3 ml of 0.9% sodium chloride containing 10% fetal calf serum. Total cell counts were determined using the Coulter Counter. For differential evaluations, BALF was centrifuged and cytospin slides prepared and stained with Hema3 stain. Manual leukocyte counts were then completed on 200 cells. The final concentration of individual leukocyte cell types per ml of BALF was determined by multiplication of the relative percentage of individual leukocytes with the total amount of cells/ml of BALF fluid. The concentration of IL-1β in the BALF samples was determined using commercially available Bio-plex kits (Bio-Rad). The analysis of cytokine levels was measured using the Bio-Plex 200 (Bio-Rad) system according to the manufacturer's instructions.

human monocytes = experiment: Human monocyte cytokine secretion assay (LPS-stimulated); type: cell-based; settings: average percent of stimulated IL-1β secretion from human monocytes at 10 μM of test compound
Procedure: Peripheral blood from healthy human volunteers was collected and the monocytes isolated via Ficoll-paque density centrifugation. […] The cells were allowed to pre-incubate with test compound at the indicated concentration for 30 minutes (37° C., 5% CO2, humidified air); after which the supernatant was removed and media containing compound and 1 ng/mL LPS was added. Cells were allowed to incubate with compounds and LPS for 4 hours at 37° C. after which the supernatant was removed and stored at −80° C. Cytokine concentrations in the supernatant were determined using commercially available Bio-Rad Bio-plex™ kits according the manufacturer's instructions.

human eosinophils = experiment: Human eosinophil chemotaxis induced by eotaxin; type: cell-based; settings: 1 nM eotaxin challenge; FIG. 2
From the text: Peripheral blood from healthy human volunteers was collected and the PMNs separated via Ficoll-paque density centrifugation followed by hypotonic lysis of the red blood cells. Subsequently, the human eosinophils were isolated from the cell suspension via StemCell Technologies Human Eosinophil Enrichment kit (Cat. No 19256) according to the manufacturer's recommendations. Briefly, unwanted cells were specifically labeled with dextran-coated magnetic nanoparticles using bispecific Tetrameric Antibody Complexes (TAC) directed against cell surface antigens on human blood cells: […] The unwanted cells are then separated from the unlabelled eosinophils using the EasySep® magnetic isolation procedure.

murine eosinophils = experiment: Murine eosinophil chemotaxis induced by eotaxin; type: cell-based, mouse; settings: 10 nM eotaxin challenge; FIG. 1
Procedure: Bronchoalveolar lavage was collected from ovalbumin sensitized and challenged mice in a volume of 2.5 mL lavage buffer. The lavage buffer was 0.9% saline with 10% fetal bovine serum. The pooled lavages were maintained on ice until use. The murine eosinophils were isolated using MACS cell separation (Miltenyi Biotech) by depletion of B cells and T cells by positive selection following incubation with antibody conjugated magnetic beads specific for CD45-R (B220) and CD90 (Thy 1.2), which bind B cells and T cells, respectively.
Eosinophil chemotaxis was assessed using a modified Boyden Chamber (Neuroprobe, 96-well) with a 5 μm pore membrane. The ability of the tested compounds to block chemotaxis induced by a 10 nM eotaxin challenge (mouse) or 1 nM eotaxin challenge (human) during one hour incubation at 37° C. with 5% CO2 was assessed. Chemotaxis was quantified via microscopy by counting the number of migrated cells in at least 3 view fields per treatment.

[7] = male, CD Sprague Dawley, mean n = 3
[8] = male, CD Sprague Dawley, mean n = 3, read-out: Cmax
[9] = male, CD Sprague Dawley, mean n = 3, read-out: Tmax
[10] = 30 μM ATP, Ki=IC50/(1+([ATP Challenge]/EC50 ATP)), read-out: p70S6K Ki, Avg
[11] = average Ki, read-out: p70S6K Ki
[12] = 15 μmol/kg, mean compound plasma concentration in mice at 15 minutes post oral administration, read-out: Mouse Oral PK
[13] = 10 μM ATP, read-out: ROCK2 Ki, Avg
[14] = Neutrophil, 1 h, 1 μM fMLP challenge, one hour, read-out: Chemotaxis Avg. IC50
[15] = average IC50 for inhibition of fMLP-induced neutrophil chemotaxis, read-out: Chemotaxis IC50
[16] = 30 μM ATP, Ki=IC50/(1+([ATP Challenge]/EC50 ATP)), read-out: Akt3 Ki, Avg

T1 sequence (Q13464 17-535 limits assumed): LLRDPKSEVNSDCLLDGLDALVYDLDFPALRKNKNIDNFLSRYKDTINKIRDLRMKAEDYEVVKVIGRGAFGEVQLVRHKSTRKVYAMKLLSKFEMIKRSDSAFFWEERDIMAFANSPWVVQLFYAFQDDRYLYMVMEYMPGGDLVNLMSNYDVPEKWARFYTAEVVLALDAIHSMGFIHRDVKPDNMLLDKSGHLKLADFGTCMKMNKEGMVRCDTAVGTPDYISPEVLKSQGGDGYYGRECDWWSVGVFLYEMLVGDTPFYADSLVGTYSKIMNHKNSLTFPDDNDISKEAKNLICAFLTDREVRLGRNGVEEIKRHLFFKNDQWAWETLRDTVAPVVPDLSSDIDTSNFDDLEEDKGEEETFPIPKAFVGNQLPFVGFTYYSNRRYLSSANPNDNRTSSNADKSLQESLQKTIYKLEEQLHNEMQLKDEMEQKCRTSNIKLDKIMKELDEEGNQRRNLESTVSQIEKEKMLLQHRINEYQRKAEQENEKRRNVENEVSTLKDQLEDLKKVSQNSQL
T3 sequence (O75116 11-552 limits assumed): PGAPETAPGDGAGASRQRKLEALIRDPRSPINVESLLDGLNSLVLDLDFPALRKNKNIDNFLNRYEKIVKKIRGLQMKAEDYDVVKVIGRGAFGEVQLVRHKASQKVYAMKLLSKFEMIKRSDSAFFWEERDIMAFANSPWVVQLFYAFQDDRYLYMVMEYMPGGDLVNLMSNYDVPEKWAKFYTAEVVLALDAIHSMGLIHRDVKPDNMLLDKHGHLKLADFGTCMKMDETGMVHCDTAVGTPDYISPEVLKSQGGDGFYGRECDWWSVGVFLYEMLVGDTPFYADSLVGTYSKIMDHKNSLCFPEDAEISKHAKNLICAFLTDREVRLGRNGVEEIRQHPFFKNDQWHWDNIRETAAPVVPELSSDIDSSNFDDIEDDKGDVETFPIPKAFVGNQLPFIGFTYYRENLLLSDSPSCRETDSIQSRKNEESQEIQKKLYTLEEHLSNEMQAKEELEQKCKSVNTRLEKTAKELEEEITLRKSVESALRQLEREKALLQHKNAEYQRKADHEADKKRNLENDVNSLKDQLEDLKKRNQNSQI
T2 sequence (P23443 1-421 T412E limits assumed): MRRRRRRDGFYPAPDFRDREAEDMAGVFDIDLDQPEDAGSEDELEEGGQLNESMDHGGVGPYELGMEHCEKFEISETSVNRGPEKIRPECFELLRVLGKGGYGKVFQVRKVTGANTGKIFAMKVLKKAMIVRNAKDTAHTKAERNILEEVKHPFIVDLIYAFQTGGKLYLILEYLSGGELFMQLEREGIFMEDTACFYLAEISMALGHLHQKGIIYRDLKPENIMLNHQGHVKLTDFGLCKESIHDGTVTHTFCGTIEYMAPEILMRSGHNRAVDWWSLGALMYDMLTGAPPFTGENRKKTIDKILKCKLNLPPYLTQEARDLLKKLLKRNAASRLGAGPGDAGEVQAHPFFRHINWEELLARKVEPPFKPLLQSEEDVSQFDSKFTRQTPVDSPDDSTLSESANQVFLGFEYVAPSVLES
T4 sequence (Q9Y243 whole entry): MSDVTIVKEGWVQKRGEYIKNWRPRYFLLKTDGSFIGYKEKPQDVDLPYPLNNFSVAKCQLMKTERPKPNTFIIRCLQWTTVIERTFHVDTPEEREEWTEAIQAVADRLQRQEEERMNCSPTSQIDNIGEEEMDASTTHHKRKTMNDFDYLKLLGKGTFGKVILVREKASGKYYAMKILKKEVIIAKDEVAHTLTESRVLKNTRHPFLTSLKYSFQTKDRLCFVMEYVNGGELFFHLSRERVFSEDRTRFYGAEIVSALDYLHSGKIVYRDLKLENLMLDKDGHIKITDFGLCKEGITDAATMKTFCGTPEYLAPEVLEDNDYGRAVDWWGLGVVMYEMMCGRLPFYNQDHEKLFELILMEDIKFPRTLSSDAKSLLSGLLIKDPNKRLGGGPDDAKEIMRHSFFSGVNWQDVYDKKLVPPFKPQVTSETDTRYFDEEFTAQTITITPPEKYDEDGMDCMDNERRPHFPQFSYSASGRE

c1cc2cc(CN3CCC[C@@H](Nc4ccc5[nH]ncc5c4)C3)ccc2o1 [Compound 1.131, (R)-N-(1-(benzofuran-5-ylmethyl)piperidin-3-yl)-1H-indazol-5-amine]
pKi (ROCK1; Avg, 10 μM ATP): 7.71
pKi (ROCK1; average Ki): 7.71
Vz_F ([1]; mean n = 3): 6.8 L/kg
AUC(0-t) [1, 7]: 10.8 µM·h
Cmax [1, 8]: 5610 nM
Tmax [1, 9]: 49.8 min
half-life ([1]; male, CD Sprague Dawley): 93 min
concentration at 24 h ([2]; PO 15 μmol/kg): 33 nM
concentration at 3 h ([2]; PO 15 μmol/kg): 7350 nM
Percent of PDGF Induced Proliferation at 1 μM Avg [3]: 61.7%
Percent of PDGF Induced Proliferation at 10 μM Avg [3]: 36.6%
pKi (p70S6K human enzyme; [10]): 6.30
pKi (p70S6K human enzyme; [11]): 6.30
Airway eosinophil infiltration (eosinophils per ml of BALF) [4]: reduced
concentration at 15 min [5, 12]: 445 nM
pKi (ROCK2; [13]): 8.42
pKi (ROCK2; average Ki, read-out: ROCK2 Ki): 8.42
pIC50 (human neutrophils; [14]): 5.80
pIC50 (human neutrophils; [15]): 5.80
pKi (Akt3 human enzyme; [16]): 6.55
pKi (Akt3 human enzyme; average Ki, read-out: Akt3 Ki): 6.55
log10AUC (Penh) [6]: 2.0674
airway hyperreactivity to methacholine dosed on Day 32 [6]: prevention of airway hyperreactivity

CS(=O)(=O)Nc1cccc(CN2CCCC(Nc3ccc4[nH]ncc4c3)C2)c1 (stereo in doubt) [Compound 1.091, (S)-N-(3-((3-(1H-indazol-5-ylamino)piperidin-1-yl)methyl)phenyl)methanesulfonamide]
pKi (ROCK1; Avg, 10 μM ATP): 7.15
pKi (ROCK1; average Ki): 7.15
AUC (0-last) ([1]; mean n = 3): BLQ
Cmax ([1]; mean n = 3): BLQ
Tmax ([1]; mean n = 3): BLQ
Vz_F ([1]; mean n = 3): BLQ
t½ ([1]; mean n = 3): BLQ
concentration at 3 h ([2]; intraperitoneal, IP 15 μmol/kg): 117 nM
Percent of PDGF Induced Proliferation at 1 μM Avg [3]: 85.7%
Percent of PDGF Induced Proliferation at 10 μM Avg [3]: 69.3%
Proliferation at 1 μM, % ([3]; average percent of PDGF stimulated proliferation at 1 μM of test compound): 85.7%
pKi (p70S6K human enzyme; [10]): 5.85
pKi (p70S6K human enzyme; [11]): 5.85
eosinophils (eosinophil influx, BALF) ([4]; dosed i.t. to day 30, anti-inflammatory dosing paradigm, FIG. 5): reduction of eosinophils
IL-1β levels in BALF from LPS-challenged mice (LPS-challenged mice): reduction
concentration at 15 min ([5]; plasma, unsensitized mice, 15 min post administration, mean n = 3, read-out: Plasma Mean Concentration): 334 nM
pKi (ROCK2; [13]): 8.48
pIC50 (human neutrophils; [14]): 5.63
pIC50 (human neutrophils; [15]): 5.64
pKi (Akt3 human enzyme; [16]): 5.27
pKi (Akt3 human enzyme; average Ki, read-out: Akt3 Ki): 5.27
airway hyperreactivity ([6]; intratracheal once a day during days 27 to 30, FIG. 9): prevention of airway hyperreactivity
IL-1β % (human monocytes): 165.5%

OCCOc1cccc(CN2CCC[C@@H](Nc3ccc4[nH]ncc4c3)C2)c1 [Compound 1.092, (R)-2-(3-((3-(1H-indazol-5-ylamino)piperidin-1-yl)methyl)phenoxy)ethanol]
pKi (ROCK1; Avg, 10 μM ATP): 6.72
Vz_F ([1]; mean n = 3): 19.0 L/kg
AUC(0-t) [1, 7]: 1.85 µM·h
Cmax [1, 8]: 2100 nM
Tmax [1, 9]: 15 min
half-life ([1]; male, CD Sprague Dawley): 104 min
concentration at 3 h ([2]; PO 15 μmol/kg): 152 nM
pKi (ROCK2; [13]): 7.55
pIC50 (human neutrophils; [14]): 5.56

CS(=O)(=O)Nc1cccc(CN2CC[C@@H](Nc3cccc4cnccc34)C2)c1 [Compound 2.038, (R)-N-(3-((3-(isoquinolin-5-ylamino)pyrrolidin-1-yl)methyl)phenyl)methanesulfonamide]
pKi (ROCK1; Avg, 10 μM ATP): 7.54
pKi (ROCK1; average Ki): 7.54
Vz_F ([1]; mean n = 3): 22.5 L/kg
AUC(0-t) [1, 7]: 1.28 µM·h
Cmax [1, 8]: 1040 nM
Tmax [1, 9]: 30 min
half-life ([1]; male, CD Sprague Dawley): 42.6 min
concentration at 24 h ([2]; PO 15 μmol/kg): 11 nM
concentration at 3 h ([2]; PO 15 μmol/kg): 440 nM
Percent of PDGF Induced Proliferation at 1 μM Avg [3]: 58.6%
Percent of PDGF Induced Proliferation at 10 μM Avg [3]: 62.7%
pKi (p70S6K human enzyme; [10]): 5.85
pKi (p70S6K human enzyme; [11]): 5.85
concentration of IL-5 in BALF ([4]; 15 μmol/kg/oral on days 27 to 31, FIG. 6): reduced levels
concentration of Eotaxin in BALF ([4]; 15 μmol/kg/oral on days 27 to 31, FIG. 7): reduced levels
concentration of IL-13 in BALF ([4]; 15 μmol/kg/oral on days 27 to 31, FIG. 8): reduced levels
Airway eosinophil infiltration (eosinophils per ml of BALF) [4]: reduced
concentration at 15 min [5, 12]: 729 nM
pKi (ROCK2; [13]): 8.20
pKi (ROCK2; average Ki, read-out: ROCK2 Ki): 8.20
pIC50 (human neutrophils; [14]): 6.13
pIC50 (human neutrophils; [15]): 6.15
eotaxin-induced chemotactic response of human eosinophils (human eosinophils): inhibited
pKi (Akt3 human enzyme; [16]): 5.59
pKi (Akt3 human enzyme; average Ki, read-out: Akt3 Ki): 5.59
eotaxin-induced chemotactic response of murine eosinophils (murine eosinophils): inhibited
log10AUC (Penh) [6]: 1.8981
airway hyperreactivity to methacholine dosed on Day 32 [6]: prevention of airway hyperreactivity
